# In the supplement of paper PMC10307832:
# Assays:
# Test in all cases: relative viability (nuclei count vs DMSO), 5 days (fraction); higher = more cells survive
# Ruxolitinib + Foretinib = compound: N#CC[C@H](C1CCCC1)n1cc(-c2ncnc3[nH]ccc23)cn1 [Ruxolitinib] + COc1cc2c(Oc3ccc(NC(=O)C4(C(=O)Nc5ccc(F)cc5)CC4)cc3F)ccnc2cc1OCCCN1CCOCC1 [Foretinib] (partner 0.25 µM)
# Summary of the method: (§1)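 Dosing by pin tool came one day after lung cancer cell lines were seeded in 1536-well plates, using either one drug or a fixed anchor-drug dose plus five library-drug doses (not always all listed) in √10 steps. After 5 days, nuclei were counted on 4× images. Relative viability is treated-well nuclei count divided by vehicle-well nuclei count, and values are medians of duplicate plates.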
# VE-821 + Vorinostat = compound: CS(=O)(=O)c1ccc(-c2cnc(N)c(C(=O)Nc3ccccc3)n2)cc1 [VE-821] + O=C(CCCCCCC(=O)Nc1ccccc1)NO [Vorinostat] (partner 1 µM)
# Summary of the method: as §1
# Vismodegib + OSI-027 = compound: CS(=O)(=O)c1ccc(C(=O)Nc2ccc(Cl)c(-c3ccccn3)c2)c(Cl)c1 [Vismodegib] + COc1cccc2cc(-c3nc([C@H]4CC[C@H](C(=O)O)CC4)n4ncnc(N)c34)[nH]c12 [OSI-027] (partner 0.5 µM)
# Summary of the method: as §1
# VE-821 + Phenformin = compound: CS(=O)(=O)c1ccc(-c2cnc(N)c(C(=O)Nc3ccccc3)n2)cc1 [VE-821] + N=C(N)NC(=N)NCCc1ccccc1 [Phenformin] (partner 250 µM)
# Summary of the method: as §1
cell line,measurement,setting,value
UMC-11,relative viability,Ruxolitinib + Foretinib; first compound 0.08 µM,1.05
same,relative viability,Ruxolitinib + Foretinib; first compound 0.253 µM,1.07
same,relative viability,Ruxolitinib + Foretinib; first compound 0.8 µM,1.28
same,relative viability,Ruxolitinib + Foretinib; first compound 2.53 µM,1.07
same,relative viability,Ruxolitinib + Foretinib; first compound 8 µM,1.02
same,relative viability,VE-821 + Vorinostat; first compound 0.08 µM,0.335
same,relative viability,VE-821 + Vorinostat; first compound 0.253 µM,0.373
same,relative viability,VE-821 + Vorinostat; first compound 0.8 µM,0.386
same,relative viability,VE-821 + Vorinostat; first compound 2.53 µM,0.297
same,relative viability,VE-821 + Vorinostat; first compound 8 µM,0.202
same,relative viability,Vismodegib + OSI-027; first compound 0.08 µM,0.499
same,relative viability,Vismodegib + OSI-027; first compound 0.253 µM,0.468
same,relative viability,Vismodegib + OSI-027; first compound 0.8 µM,0.408
same,relative viability,Vismodegib + OSI-027; first compound 2.53 µM,0.43
same,relative viability,Vismodegib + OSI-027; first compound 8 µM,0.46
same,relative viability,VE-821 + Phenformin; first compound 0.08 µM,0.335
same,relative viability,VE-821 + Phenformin; first compound 0.253 µM,0.301
same,relative viability,VE-821 + Phenformin; first compound 0.8 µM,0.331
same,relative viability,VE-821 + Phenformin; first compound 2.53 µM,0.341
same,relative viability,VE-821 + Phenformin; first compound 8 µM,0.265
